Data published in patent publication US5858700A, “Process for the isolation and purification of lycopene crystals” (Kemin Foods, LC, priority 1997, dated 1999).

Assays:
rat = conditions: oral; cited from earlier work
[1] = Pigment (lycopene) stability in freeze-dried tomato skins on 6-day storage at 30° C.; type: physicochemical; conditions: 6 days at 30° C., hexanes extract, spectrophotometric
Excerpt: Wet tomato skins from Siagra Co., Chengmai, Thailand (8.3 kg of the 50 lb batch used in Example 1) were freeze-dried for three days in a tray freeze-dryer (FTS Systems Inc., Stone Ridge N.Y.) to obtain freeze-dried tomato skins (2.08 kg, 24.3 percent moisture) from which five samples were taken.
The first sample of freeze-dried tomato skins was ground in a rotary meat grinder, which separated the seeds from the tomato skins. Further separation using sieves and air separation produced samples that were substantially only from the skins or the seeds of the tomatoes. The skin and seed samples were ground separately in a CYCLOTEC TECATOR™ mill (Fisher Scientific, Pittsburgh Pa.) fitted with a 0.5 mm screen, and found to contain 1328 milligrams of pigment per kilogram of tomato skins and 97 milligrams of pigment per kilogram of tomato seeds. The seeds thus contribute little to the total extractable pigment yet constitute a large portion of the total sample mass.
A second sample was left in flake form, and was dried for 6 days at 30° C. A third sample was ground in a WILEY™ mill (Fisher Scientific, Pittsburgh Pa.) fitted with a 2 mm screen and dried for 6 days at 30° C. A fourth sample was ground in a WILEY™ mill fitted with a 1 mm screen and dried for 6 days at 30° C. A fifth sample was ground in a CYCLOTEC™ mill fitted with a 0.5 mm screen and dried for 6 days at 30° C.
At the end of the treatment, all of the samples were extracted with hexanes, analyzed spectrophotometrically, and compared with the amount of lycopene present in the freeze-dried flakes before the 6-day heat treatment. The samples ground in the CYCLOTEC™ mill (<0.5 mm particles) and the WILEY™ mill (<1 mm and <2 mm particles) had more of the oxidized lycopene content than the non-ground (flake) sample: 36, 33, 36 and 25 percent pigment losses, respectively. However, none of the samples after 6 days had over 75 percent of the lycopene that was present before the treatment.

prostate cancer = conditions: consumption of lycopene; Giovannucci et al. 1995; cited from earlier work

Question: Which LD50 (rat) does the source give for `CC(C)=O` [Acetone] here?
Answer: 10.7 mL/kg

Question: For `ClC(Cl)Cl` [Chloroform], which LD50 (rat) is on record?
Answer: 2.18 mL/kg

Question: For `CCOC(C)=O` [Ethyl Acetate], which LD50 (rat) is on record?
Answer: 11.3 mL/kg

Question: Which LD50 (rat) does the source give for `CC(O)CO` (stereo not shown) [Propylene Glycol, 1,2-propanediol] here?
Answer: 25 mL/kg

Question: With `c1ccncc1` [Pyridine] as the compound, how does the LD50 (rat) read?
Answer: 1.58 mL/kg

Question: For `CC(C)=CCC/C(C)=C/C=C/C(C)=C/C=C/C(C)=C/C=C/C=C(C)/C=C/C=C(C)/C=C/C=C(\C)CCC=C(C)C` [lycopene, .psi.,.psi.-carotene], which pigment losses ([1]; CYCLOTEC mill, <0.5 mm particles) is on record?
Answer: 36%

Question: And the pigment losses ([1]; WILEY mill, <1 mm particles)?
Answer: 33%

Question: What about the pigment losses ([1]; WILEY mill, <2 mm particles) of the same compound?
Answer: 36%

Question: And the pigment losses ([1]; non-ground (flake) sample)?
Answer: 25%

Question: And the “risk of prostate cancer” value (prostate cancer)?
Answer: reduced risk of prostate cancer
